What all share (assay type): functional
Experiment [1] concerns Haemophilus influenzae. Put plainly: Antibacterial activity against Haemophilus influenzae 2762.
Experiment [2] has as its system Staphylococcus aureus. The experiment can be described thus: Antibacterial activity against Staphylococcus aureus 29213.
For experiment [3], the system named is Staphylococcus aureus. The experiment can be described thus: Antibacterial activity against Staphylococcus aureus 33591.
Experiment [4] relates to Staphylococcus epidermidis. The experiment can be described thus: Antibacterial activity against Staphylococcus epidermidis 14990.
Experiment [5] concerns Staphylococcus epidermidis. Put plainly: Antibacterial activity against Staphylococcus epidermidis f50654.
In experiment [6] the test system is Enterococcus faecalis. Put plainly: Antibacterial activity against Enterococcus faecalis 29212.
Experiment [7] deals with Enterococcus faecalis. The experiment can be described thus: Antibacterial activity against Enterococcus faecalis bc11148-2.
The subject of the next experiment is Streptococcus pyogenes. The experiment can be described thus: Antibacterial activity against Streptococcus pyogenes 8668.
The test system of experiment [8] is Streptococcus pneumoniae. Put plainly: Antibacterial activity against Streptococcus pneumoniae 49619.
Experiment [9] deals with Streptococcus pneumoniae. The experiment can be described thus: Antibacterial activity against Streptococcus pneumoniae 297-749.
Experiment [10] has as its system Streptococcus pneumoniae. The experiment can be described thus: Antibacterial activity against Streptococcus pneumoniae 280-962.
Experiment [11] has as its system Streptococcus pneumoniae. The experiment can be described thus: Antibacterial activity against Streptococcus pneumoniae Erm 6849.
Experiment [12] has as its system Streptococcus pneumoniae. Put plainly: Antibacterial activity against Streptococcus pneumoniae Mef 5654.
For experiment [13], the system named is Streptococcus pneumoniae. The experiment can be described thus: Antibacterial activity against Streptococcus pneumoniae Mef S 3427.
Experiment [14] deals with Haemophilus influenzae. Put plainly: Antibacterial activity against Haemophilus influenzae 49247.

Each structure is given as a SMILES string. ≈ marks a conversion by molar mass, not a printed value. Some results are limits rather than exact numbers.

In the case of `C=C[C@]12OC(=O)N(CCCCn3cnc(-c4ccc(F)nc4)c3)[C@@H]1[C@@H](C)C(=O)[C@H](C)C[C@@](C)(OC)[C@H](O[C@@H]1O[C@H](C)C[C@H](N(C)C)[C@H]1O)[C@@H](C)C(=O)[C@@H](C)C(=O)O[C@@H]2CC`, the MIC with Haemophilus influenzae [1] was 1.56 µg/mL (≈ 1.85 µM); against Staphylococcus aureus [2] it was 0.1 µg/mL (≈ 0.119 µM); in the experiment with Staphylococcus aureus [3], more than 50 µg/mL; in experiment [4] it was 0.1 µg/mL (≈ 0.119 µM); in experiment [5], 0.1 µg/mL (≈ 0.119 µM); in the experiment on Enterococcus faecalis [6] it was 0.1 µg/mL (≈ 0.119 µM). The MIC is 0.4 µg/mL (≈ 0.475 µM) against Enterococcus faecalis [7]; not above 0.05 µg/mL with Streptococcus pyogenes; not above 0.05 µg/mL against Streptococcus pneumoniae [8]; not above 0.05 µg/mL in the experiment with Streptococcus pneumoniae [9]; not above 0.05 µg/mL with Streptococcus pneumoniae [10]; 0.78 µg/mL (≈ 0.926 µM) in the experiment with Streptococcus pneumoniae [11]. The MIC came out at 0.4 µg/mL (≈ 0.475 µM) in the experiment with Streptococcus pneumoniae [12], 0.1 µg/mL (≈ 0.119 µM) in the experiment with Streptococcus pneumoniae [13] and 3.13 µg/mL (≈ 3.72 µM) in the experiment on Haemophilus influenzae [14].

Turning to `C=C[C@]12OC(=O)N(CCCCn3cnc(-c4ccc(O)nc4)c3)[C@@H]1[C@@H](C)C(=O)[C@H](C)C[C@@](C)(OC)[C@H](O[C@@H]1O[C@H](C)C[C@H](N(C)C)[C@H]1O)[C@@H](C)C(=O)[C@@H](C)C(=O)O[C@@H]2CC`, the MIC in the experiment with Haemophilus influenzae [1] was 1.56 µg/mL (≈ 1.86 µM); against Staphylococcus aureus [2], 0.4 µg/mL (≈ 0.476 µM); against Staphylococcus aureus [3], more than 50 µg/mL; in [4], 0.2 µg/mL (≈ 0.238 µM); in [5], 0.2 µg/mL (≈ 0.238 µM); against Enterococcus faecalis [6] it was 0.2 µg/mL (≈ 0.238 µM). The MIC in the experiment with Enterococcus faecalis [7] is 3.13 µg/mL (≈ 3.73 µM); against Streptococcus pyogenes, not above 0.05 µg/mL; against Streptococcus pneumoniae [8], not above 0.05 µg/mL; against Streptococcus pneumoniae [9] it was not above 0.05 µg/mL; in the experiment on Streptococcus pneumoniae [10], not above 0.05 µg/mL; against Streptococcus pneumoniae [11] it was 12.5 µg/mL (≈ 14.9 µM). Further, the figures for the MIC with Streptococcus pneumoniae [12], with Streptococcus pneumoniae [13] and against Haemophilus influenzae [14] were 3.13 µg/mL (≈ 3.73 µM), 1.56 µg/mL (≈ 1.86 µM) and 6.25 µg/mL (≈ 7.44 µM), respectively.

Take `C=C[C@]12OC(=O)N(CCCCn3cnc(-c4cncnc4)c3)[C@@H]1[C@@H](C)C(=O)[C@H](C)C[C@@](C)(OC)[C@H](O[C@@H]1O[C@H](C)C[C@H](N(C)C)[C@H]1O)[C@@H](C)C(=O)[C@@H](C)C(=O)O[C@@H]2CC`: the MIC against Haemophilus influenzae [1] was 1.56 µg/mL (≈ 1.89 µM); in the experiment on Staphylococcus aureus [2], 0.2 µg/mL (≈ 0.242 µM); in the experiment on Staphylococcus aureus [3], more than 50 µg/mL; in [4] it was 0.2 µg/mL (≈ 0.242 µM); in experiment [5], 0.2 µg/mL (≈ 0.242 µM); against Enterococcus faecalis [6] it was 0.1 µg/mL (≈ 0.121 µM). In addition, the MIC in the experiment on Enterococcus faecalis [7] is 0.4 µg/mL (≈ 0.485 µM); in the experiment with Streptococcus pyogenes it was not above 0.05 µg/mL; with Streptococcus pneumoniae [8] it was not above 0.05 µg/mL; with Streptococcus pneumoniae [9], not above 0.05 µg/mL; against Streptococcus pneumoniae [10], not above 0.05 µg/mL; in the experiment on Streptococcus pneumoniae [11], 0.2 µg/mL (≈ 0.242 µM). Besides, the MIC in the experiment with Streptococcus pneumoniae [12] worked out at 0.78 µg/mL (≈ 0.945 µM); against Streptococcus pneumoniae [13], 0.1 µg/mL (≈ 0.121 µM); with Haemophilus influenzae [14] it was 3.13 µg/mL (≈ 3.79 µM).

For the molecule `C=C[C@]12OC(=O)N(CCCCn3cnc(-c4ccc(N(C)C)nc4)c3)[C@@H]1[C@@H](C)C(=O)[C@H](C)C[C@@](C)(OC)[C@H](O[C@@H]1O[C@H](C)C[C@H](N(C)C)[C@H]1O)[C@@H](C)C(=O)[C@@H](C)C(=O)O[C@@H]2CC`, the MIC with Haemophilus influenzae [1] is 1.56 µg/mL (≈ 1.8 µM); with Staphylococcus aureus [2], 0.2 µg/mL (≈ 0.231 µM); against Staphylococcus aureus [3] it was more than 50 µg/mL; in experiment [4] it was 0.2 µg/mL (≈ 0.231 µM); in experiment [5], 0.2 µg/mL (≈ 0.231 µM); against Enterococcus faecalis [6] it was 0.1 µg/mL (≈ 0.115 µM). The MIC in the experiment on Enterococcus faecalis [7] was 0.78 µg/mL (≈ 0.9 µM); in the experiment with Streptococcus pyogenes, not above 0.05 µg/mL; in the experiment on Streptococcus pneumoniae [8] it was not above 0.05 µg/mL; in the experiment with Streptococcus pneumoniae [9] it was not above 0.05 µg/mL; against Streptococcus pneumoniae [10] it was not above 0.05 µg/mL; in the experiment with Streptococcus pneumoniae [11], 0.78 µg/mL (≈ 0.9 µM). Moreover, the MIC in the experiment on Streptococcus pneumoniae [12] came out at 1.56 µg/mL (≈ 1.8 µM); in the experiment on Streptococcus pneumoniae [13], 0.2 µg/mL (≈ 0.231 µM); against Haemophilus influenzae [14], 12.5 µg/mL (≈ 14.4 µM).

On to `C=C[C@]12OC(=O)N(CCCCc3ccc(-c4cccnc4)s3)[C@@H]1[C@@H](C)C(=O)[C@H](C)C[C@@](C)(OC)[C@H](O[C@@H]1O[C@H](C)C[C@H](N(C)C)[C@H]1O)[C@@H](C)C(=O)[C@@H](C)C(=O)O[C@@H]2CC`, for which the MIC turned out to be 3.13 µg/mL (≈ 3.73 µM) in the experiment on Haemophilus influenzae [1]; 0.2 µg/mL (≈ 0.238 µM) with Staphylococcus aureus [2]; 12.5 µg/mL (≈ 14.9 µM) against Staphylococcus aureus [3]; 0.2 µg/mL (≈ 0.238 µM) in experiment [4]; 0.2 µg/mL (≈ 0.238 µM) in [5]; 0.1 µg/mL (≈ 0.119 µM) in the experiment with Enterococcus faecalis [6]. For the same molecule, the MIC is 3.13 µg/mL (≈ 3.73 µM) in the experiment on Enterococcus faecalis [7]; 0.1 µg/mL (≈ 0.119 µM) with Streptococcus pyogenes; not above 0.05 µg/mL in the experiment with Streptococcus pneumoniae [8]; not above 0.05 µg/mL against Streptococcus pneumoniae [9]; not above 0.05 µg/mL against Streptococcus pneumoniae [10]; 3.13 µg/mL (≈ 3.73 µM) in the experiment with Streptococcus pneumoniae [11]. The MIC is 0.78 µg/mL (≈ 0.928 µM) against Streptococcus pneumoniae [12], 0.2 µg/mL (≈ 0.238 µM) against Streptococcus pneumoniae [13] and 3.13 µg/mL (≈ 3.73 µM) in the experiment on Haemophilus influenzae [14].

Regarding `C=C[C@]12OC(=O)N(CCCCn3cnc4c(C)ncnc43)[C@@H]1[C@@H](C)C(=O)[C@H](C)C[C@@](C)(OC)[C@H](O[C@@H]1O[C@H](C)C[C@H](N(C)C)[C@H]1O)[C@@H](C)C(=O)[C@@H](C)C(=O)O[C@@H]2CC`, the MIC against Haemophilus influenzae [1] is 0.78 µg/mL (≈ 0.959 µM); with Staphylococcus aureus [2], 0.1 µg/mL (≈ 0.123 µM); in the experiment on Staphylococcus aureus [3], more than 50 µg/mL; in experiment [4], 0.1 µg/mL (≈ 0.123 µM); in [5], 0.1 µg/mL (≈ 0.123 µM); against Enterococcus faecalis [6], not above 0.05 µg/mL. Further, the MIC against Enterococcus faecalis [7] is 0.4 µg/mL (≈ 0.492 µM); against Streptococcus pyogenes, not above 0.05 µg/mL; against Streptococcus pneumoniae [8] it was not above 0.05 µg/mL; with Streptococcus pneumoniae [9], not above 0.05 µg/mL; in the experiment with Streptococcus pneumoniae [10], not above 0.05 µg/mL; against Streptococcus pneumoniae [11] it was more than 50 µg/mL. Further, the values for the MIC in the experiment with Streptococcus pneumoniae [12], in the experiment with Streptococcus pneumoniae [13] and against Haemophilus influenzae [14] were 0.78 µg/mL (≈ 0.959 µM), 0.2 µg/mL (≈ 0.246 µM) and 3.13 µg/mL (≈ 3.85 µM), respectively.
